Literature values, collected in US20100099088A1, “RELIABLE DETECTION OF VANCOMYCIN-INTERMEDIATE STAPHYLOCOCCUS AUREUS” (priority 2006, published 2010).
Where two headings read alike, the source gives them in different places.

Assays:
[1] = system: Staphylococcus aureus strains (MRSA, hVISA/VISA); conditions: cited from earlier work; as to Modified Etest category: key: S = sensitive; I = intermediate; R = resistant
[2] = system: Staphylococcus aureus strains (MRSA, hVISA/VISA, in vitro-selected); conditions: cited from earlier work; as to CLSI Etest category: key: S = sensitive; I = intermediate; R = resistant
[3] = strain 160013 (NRS283), 2 McF inoculum
[4] = strain BR 5 (NRS56), 2 McF inoculum
[5] = strain HIP07930 (NRS22), 2 McF inoculum
[6] = strain HIP09433 (NRS27), 2 McF inoculum
[7] = strain HIP09662 (NRS28), 2 McF inoculum
[8] = strain HIP12864 (NRS402), 2 McF inoculum
[9] = strain LIM 1 (NRS35), 2 McF inoculum
[10] = strain LIM 3 (NRS37), 2 McF inoculum
[11] = strain LY-1999 0620-01 (NRS63), 2 McF inoculum
[12] = strain LY-1999 0620-02 (NRS64), 2 McF inoculum
[13] = strain Mu3 (NRS2), 2 McF inoculum
[14] = strain Mu50 (NRS1), 2 McF inoculum
[15] = strain SA MER (NRS11), 2 McF inoculum
[16] = strain SA MER-S20 (NRS14), 2 McF inoculum
[17] = strain 160013 (NRS283), 0.5 McF inoculum
[18] = strain BR 5 (NRS56), 0.5 McF inoculum
[19] = strain HIP07930 (NRS22), 0.5 McF inoculum
[20] = strain HIP09433 (NRS27), 0.5 McF inoculum
[21] = strain HIP09662 (NRS28), 0.5 McF inoculum
[22] = strain HIP12864 (NRS402), 0.5 McF inoculum
[23] = strain LIM 1 (NRS35), 0.5 McF inoculum
[24] = strain LIM 3 (NRS37), 0.5 McF inoculum
[25] = strain LY-1999 0620-01 (NRS63), 0.5 McF inoculum
[26] = strain LY-1999 0620-02 (NRS64), 0.5 McF inoculum
[27] = strain Mu3 (NRS2), 0.5 McF inoculum
[28] = strain Mu50 (NRS1), 0.5 McF inoculum
[29] = strain NRS118, 0.5 McF inoculum
[30] = strain SA MER (NRS11), 0.5 McF inoculum
[31] = strain SA MER-S20 (NRS14), 0.5 McF inoculum

## CN[C@H](CC(C)C)C(=O)N[C@H]1C(=O)N[C@@H](CC(N)=O)C(=O)N[C@H]2C(=O)N[C@H]3C(=O)N[C@H](C(=O)N[C@H](C(=O)O)c4cc(O)cc(O)c4-c4cc3ccc4O)[C@H](O)c3ccc(c(Cl)c3)Oc3cc2cc(c3O[C@@H]2O[C@H](CO)[C@@H](O)[C@H](O)[C@H]2O[C@H]2C[C@](C)(N)[C@H](O)[C@H](C)O2)Oc2ccc(cc2Cl)[C@H]1O [vancomycin]
[1]; [3]
  Modified Etest MIC: 8 µg/mL
  Modified Etest category: I
[1]; [4]
  Modified Etest MIC: 16 µg/mL
  Modified Etest category: I
[1]; [5]
  Modified Etest MIC: 8 µg/mL
  Modified Etest category: I
[1]; [6]
  Modified Etest MIC: 8 µg/mL
  Modified Etest category: I
[1]; [7]
  Modified Etest MIC: 8 µg/mL
  Modified Etest category: I
[1]; [8]
  Modified Etest MIC: 48 µg/mL
  Modified Etest category: R
[1]; [9]
  Modified Etest MIC: 4 µg/mL
  Modified Etest category: S
[1]; [10]
  Modified Etest MIC: 6 µg/mL
  Modified Etest category: I
[1]; [11]
  Modified Etest MIC: 16 µg/mL
  Modified Etest category: I
[1]; [12]
  Modified Etest MIC: 6 µg/mL
  Modified Etest category: I
[1]; [13]
  Modified Etest MIC: 6 µg/mL
  Modified Etest category: I
[1]; [14]
  Modified Etest MIC: 12 µg/mL
  Modified Etest category: I
[1]; strain NRS118, 2 McF inoculum
  Modified Etest MIC: 24 µg/mL
  Modified Etest category: I
[1]; [15]
  Modified Etest MIC: 8 µg/mL
  Modified Etest category: I
[1]; [16]
  Modified Etest MIC: 24 µg/mL
  Modified Etest category: I
[2]; [17]
  CLSI Etest MIC: 4 µg/mL
  CLSI Etest category: I
[2]; [18]
  CLSI Etest MIC: 8 µg/mL
  CLSI Etest category: I
[2]; [19]
  CLSI Etest MIC: 4 µg/mL
  CLSI Etest category: I
[2]; [20]
  CLSI Etest MIC: 4 µg/mL
  CLSI Etest category: I
[2]; [21]
  CLSI Etest MIC: 3 µg/mL
  CLSI Etest category: S
[2]; [22]
  CLSI Etest MIC: 8 µg/mL
  CLSI Etest category: I
[2]; [23]
  CLSI Etest MIC: 2 µg/mL
  CLSI Etest category: S
[2]; [24]
  CLSI Etest MIC: 4 µg/mL
  CLSI Etest category: I
[2]; [25]
  CLSI Etest MIC: 8 µg/mL
  CLSI Etest category: I
[2]; [26]
  CLSI Etest MIC: 1.5 µg/mL
  CLSI Etest category: S
[2]; [27]
  CLSI Etest MIC: 4 µg/mL
  CLSI Etest category: I
[2]; [28]
  CLSI Etest MIC: 8 µg/mL
  CLSI Etest category: I
[2]; [29]
  CLSI Etest MIC: 8 µg/mL
  CLSI Etest category: I
[2]; [30]
  CLSI Etest MIC: 2 µg/mL
  CLSI Etest category: S
[2]; [31]
  CLSI Etest MIC: 8 µg/mL
  CLSI Etest category: I
